One test concerns the target T1, CDK9/CycT1 (Homo sapiens, UniProt P50750).
T1 construct: Recombinant full-length His-tagged human CDK9 and CycT1; His; purchased Invitrogen PV4131; host or cells: insect cells
The test can be described thus: CDK9/CycT1 high ATP kinase assay (TR-FRET, 2 mM ATP). The test is classed as biochemical. The conditions noted are these: Method 1b. As for the experimental part: 1b. CDK9/CyeT1 High ATP Kinase Assay
CDK9/CycT1-inhibitory activity of compounds of the present invention at a high ATP concentration after preincubation of enzyme and test compounds was quantified employing the CDK9/CycT1 TR-FRET assay as described in the following paragraphs.
Recombinant full-length His-tagged human CDK9 and CycT1, expressed in insect cells and purified by Ni-NTA affinity chromatography, were purchase from Invitrogen (Cat. No PV4131). As substrate for the kinase reaction biotinylated peptide biotin-Ttds-[…] (C-terminus in amid form) was used which can be purchased e.g. form the company JERINI peptide technologies (Berlin, Germany). For the assay 50 nl of a 100 fold concentrated solution of the test compound in DMSO was pipetted into a black low volume 384 well microtiter plate (Greiner Bio-One, Frickenhausen, Germany), 2 μl of a solution of CDK9/CycT1 in aqueous assay buffer [50 mM Tris/HCl pH 8.0, 10 mM MgCl2, 1.0 mM dithiothreitol, 0.1 mM sodium ortho-vanadate, 0.01% (v/v) Nonidet-P40 (Sigma)] were added and the mixture was incubated for 15 min at 22° C. to allow pre-binding of the test compounds to the enzyme before the start of the kinase reaction. Then the kinase reaction was started by the addition of 3 μl of a solution of adenosine-tri-phosphate (ATP, 3.3 mM=>final conc. in the 5 μl assay volume is 2 mM) and substrate (1.67 μM=>final conc. in the 5 μl assay volume is 1 μM) in assay buffer and the resulting mixture was incubated for a reaction time of 25 min at 22° C.
The resulting mixture was incubated 1 h at 22° C. to allow the formation of complex between the phosphorylated biotinylated peptide and the detection reagents. Subsequently the amount of phosphorylated substrate was evaluated by measurement of the resonance energy transfer from the Eu-chelate to the streptavidine-XL. Therefore, the fluorescence emissions at 620 nm and 665 nm after excitation at 350 nm was measured in a HTRF reader, e.g. a Rubystar (BMG Labtechnologies, Offenburg, Germany) or a Viewlux (Perkin-Elmer). The ratio of the emissions at 665 nm and at 622 nm was taken as the measure for the amount of phosphorylated substrate.
A general note: Time-resolved FRET reads energy transfer from a long-lived donor to a nearby acceptor.

Test [1] relates to NCI-H460, human non-small cell lung carcinoma cells. The test can be described thus: Proliferation assay, NCI-H460 (crystal violet). The test is classed as cell-based. To be noted: NCI-H460, 4 days, read-out: Inhibition of NCI-H460 cell proliferation IC50. As for the experimental part: (§1) Cultivated tumour cells (HeLa, human cervical tumour cells, ATCC CCL-2; NCI-H460, human non-small cell lung carcinoma cells, ATCC HTB-177; A2780, human ovarian carcinoma cells, ECACC #93112519; DU 145, hormone-independent human prostate carcinoma cells, ATCC HTB-81; HeLa-MaTu-ADR, multidrug-resistant human cervical carcinoma cells, EPO-GmbH Berlin; Caco-2, human colorectal carcinoma cells, ATCC HTB-37; B16F10, mouse melanoma cells, ATCC CRL-6475) were plated at a density of 5,000 cells/well (DU145, HeLa-MaTu-ADR), 3,000 cells/well (NCI-H460, HeLa), 2,500 cells/well (A2780), 1,500 cells/well (Caco-2), or 1,000 cells/well (B16F10) in a 96-well multititer plate in 200 μL of their respective growth medium supplemented 10% fetal calf serum. After 24 hours, the cells of one plate (zero-point plate) were stained with crystal violet (see below), while the medium of the other plates was replaced by fresh culture medium (200 μl), to which the test substances were added in various concentrations (0 μM, as well as in the range of 0.001-10 μM; the final concentration of the solvent dimethyl sulfoxide was 0.5%). The cells were incubated for 4 days in the presence of test substances. Cell proliferation was determined by staining the cells with crystal violet: the cells were fixed by adding 20 μl/measuring point of an 11% glutaric aldehyde solution for 15 minutes at room temperature. After three washing cycles of the fixed cells with water, the plates were dried at room temperature. The cells were stained by adding 100 μl/measuring point of a 0.1% crystal violet solution (pH 3.0). After three washing cycles of the stained cells with water, the plates were dried at room temperature. The dye was dissolved by adding 100 μl/measuring point of a 10% acetic acid solution. The extinction was determined by photometry at a wavelength of 595 nm. The change of cell number, in percent, was calculated by normalization of the measured values to the extinction values of the zero-point plate (=0%) and the extinction of the untreated (0 μm) cells (=100%). The IC50 values (inhibitory concentration at 50% of maximal effect) were determined by means of a 4 parameter fit. Non-adherent MOLM-13 human acute myeloid leukemia cells (DSMZ ACC 554) were seeded at a density of 5,000 cells/well in a 96-well multititer plate in 100 μL of growth medium supplemented 10% fetal calf serum. After 24 hours, cell viability of one plate (zero-point plate) was determined with the Cell Titre-Glo Luminescent Cell Viability Assay (Promega), while 50 μL of test compound containing medium was added to the wells of the other plates (final concentrations in the range of 0.001-10 μM and DMSO controls; the final concentration of the solvent dimethyl sulfoxide was 0.5%). Cell viability was assessed after 72-hour exposure with the Cell Titre-Glo Luminescent Cell Viability Assay (Promega).

The subject of test [2] is DU 145, hormone-independent human prostate carcinoma cells. The test can be described thus: Proliferation assay, DU145 (crystal violet). Type of test: cell-based. To be noted: DU145, 4 days, read-out: Inhibition of DU145 cell proliferation IC50. On the procedure: as §1
Test [3] deals with B16F10, mouse melanoma cells. Description: Proliferation assay, B16F10 (crystal violet). The test is classed as cell-based. To be noted: B16F10, 4 days, read-out: Inhibition of B16F10 cell proliferation IC50. On the procedure: as §1

pIC50: −log10 of the molar value. Read-outs that look alike come from different tables or passages of the source.

T1 sequence (P50750 whole entry): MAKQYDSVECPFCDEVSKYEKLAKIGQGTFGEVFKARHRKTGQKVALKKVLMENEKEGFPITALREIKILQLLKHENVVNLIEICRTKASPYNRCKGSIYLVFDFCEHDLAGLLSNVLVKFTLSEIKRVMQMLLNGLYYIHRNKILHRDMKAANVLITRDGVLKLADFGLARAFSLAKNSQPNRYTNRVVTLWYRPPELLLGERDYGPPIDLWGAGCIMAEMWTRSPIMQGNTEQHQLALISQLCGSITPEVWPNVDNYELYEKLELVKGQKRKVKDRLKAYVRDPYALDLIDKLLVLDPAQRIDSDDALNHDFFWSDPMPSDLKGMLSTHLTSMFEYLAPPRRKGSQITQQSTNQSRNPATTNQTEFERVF
T1 sequence (O60563 whole entry partner): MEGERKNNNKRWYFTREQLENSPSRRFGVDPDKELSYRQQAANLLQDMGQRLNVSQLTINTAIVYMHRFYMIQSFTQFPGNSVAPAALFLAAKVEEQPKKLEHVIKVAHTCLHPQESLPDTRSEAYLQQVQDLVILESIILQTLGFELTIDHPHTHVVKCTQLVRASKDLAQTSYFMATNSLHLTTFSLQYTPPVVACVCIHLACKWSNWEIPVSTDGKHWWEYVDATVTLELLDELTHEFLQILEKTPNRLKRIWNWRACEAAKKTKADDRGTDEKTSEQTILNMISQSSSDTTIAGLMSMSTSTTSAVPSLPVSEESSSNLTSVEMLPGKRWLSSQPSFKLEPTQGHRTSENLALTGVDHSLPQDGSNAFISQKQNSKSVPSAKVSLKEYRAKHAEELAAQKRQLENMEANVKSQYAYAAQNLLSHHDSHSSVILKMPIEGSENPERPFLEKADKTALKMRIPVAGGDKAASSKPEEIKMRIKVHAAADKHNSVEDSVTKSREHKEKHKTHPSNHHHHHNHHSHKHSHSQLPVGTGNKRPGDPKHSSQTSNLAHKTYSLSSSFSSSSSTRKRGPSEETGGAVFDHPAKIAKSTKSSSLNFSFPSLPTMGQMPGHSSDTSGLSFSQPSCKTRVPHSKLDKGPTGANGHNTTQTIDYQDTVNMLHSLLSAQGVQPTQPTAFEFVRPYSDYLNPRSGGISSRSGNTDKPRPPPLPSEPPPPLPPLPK

Consider `COc1cc(F)ccc1-c1cc(Nc2cc(CS(C)(=N)=O)cc(C)n2)ncc1F` (single isomer, unassigned; (+)) [Example 32, (+)-5-Fluoro-4-(4-fluoro-2-methoxyphenyl)-N-{6-methyl-4-[(S-methylsulfonimidoyl)methyl]pyridin-2-yl}pyridin-2-amine], for which the pIC50 against CDK9/CycT1 was 8.70; in test [1] it was 7.00; in test [2] (Homo sapiens, DU-145, 96 h), 7.42; in test [3] (Mus musculus, B16-F10, 96 h), 7.01.
For `COc1cc(F)ccc1-c1cc(Nc2cc(CS(C)(=O)=NC(C)=O)ccn2)ncc1F` (racemic) [Example 13, (rac)-N-{[(2-{[5-Fluoro-4-(4-fluoro-2-methoxyphenyl)pyridin-2-yl]amino}pyridin-4-yl)methyl](methyl)oxido-λ^6-sulfanylidene}acetamide], the pIC50 against CDK9/CycT1 is 9.00; in test [1] (Homo sapiens, NCI-H460, 96 h), 6.96; in test [2] (Homo sapiens, DU-145, 96 h) it was 6.96; in test [3] (Mus musculus, B16-F10, 96 h), 6.74.
On to `COc1cc(CS(C)(=N)=O)cc(Nc2cc(-c3ccc(F)cc3OC)c(F)cn2)n1` (racemic) [Example 6, (rac)-5-Fluoro-4-(4-fluoro-2-methoxyphenyl)-N-{6-methoxy-4-[(S-methylsulfonimidoyl)methyl]pyridin-2-yl}pyridin-2-amine], for which the pIC50 at CDK9/CycT1 is 9.00; in test [1] (Homo sapiens, NCI-H460, 96 h), 7.48; in test [2] (Homo sapiens, DU-145, 96 h), 7.52; in test [3] (Mus musculus, B16-F10, 96 h) it was 7.48.
For the compound `COc1cc(F)ccc1-c1cc(Nc2cc(CS(C)(=N)=O)cc(F)n2)ncc1F` (racemic) [Example 17, (rac)-5-Fluoro-4-(4-fluoro-2-methoxyphenyl)-N-{6-fluoro-4-[(S-methylsulfonimidoyl)methyl]pyridin-2-yl}pyridin-2-amine], the pIC50 on CDK9/CycT1 is 8.74; in test [1] (Homo sapiens, NCI-H460, 96 h), 7.35; in test [2] (Homo sapiens, DU-145, 96 h), 7.32; in test [3] (Mus musculus, B16-F10, 96 h), 7.17.
Consider `COc1cc(F)ccc1-c1cc(Nc2cc(CS(C)(=N)=O)cc(C(F)(F)F)n2)ncc1F` (single isomer, unassigned; (-)) [Example 23, (−)-5-Fluoro-4-(4-fluoro-2-methoxyphenyl)-N-{4-[(S-methylsulfonimidoyl)methyl]-6-(trifluoromethyl)pyridin-2-yl}pyridin-2-amine], for which the pIC50 against CDK9/CycT1 was 8.70; in test [1] it was 7.46; in test [2], 7.47; in test [3], 7.33.
As to `CCNC(=O)N=S(C)(=O)Cc1ccnc(Nc2cc(-c3ccc(F)cc3OC)c(F)cn2)c1` (racemic) [Example 12, (rac)-1-Ethyl-3-{[(2-{[5-fluoro-4-(4-fluoro-2-methoxyphenyl)pyridin-2-yl]amino}pyridin-4-yl)methyl](methyl)oxido-λ^6-sulfanylidene}urea], the pIC50 against CDK9/CycT1 was 8.70; in test [1] (Homo sapiens, NCI-H460, 96 h), 7.00; in test [2] (Homo sapiens, DU-145, 96 h), 7.11; in test [3] (Mus musculus, B16-F10, 96 h), 6.89.
For `COc1cc(F)ccc1-c1cc(Nc2cc(CS(C)(=O)=NC(=O)C(F)(F)F)cc(F)n2)ncc1F` (racemic) [Example 18, (rac)-2,2,2-Trifluoro-N-{[(2-fluoro-6-{[5-fluoro-4-(4-fluoro-2-methoxyphenyl)pyridin-2-yl]amino}pyridin-4-yl)methyl](methyl)oxido-λ^6-sulfanylidene}acetamide], in that order: 8.40, 6.96, 7.39 and 7.17.
On to `COc1cc(F)ccc1-c1cc(Nc2cc(CS(C)(=N)=O)cc(C(F)(F)F)n2)ncc1F` (racemic) [Example 21, (rac)-5-Fluoro-4-(4-fluoro-2-methoxyphenyl)-N-{4-[(S-methylsulfonimidoyl)methyl]-6-(trifluoromethyl)pyridin-2-yl}pyridin-2-amine], for which the pIC50 against CDK9/CycT1 was 8.70; in test [1] (Homo sapiens, NCI-H460, 96 h) it was 7.48; in test [2] (Homo sapiens, DU-145, 96 h), 7.52; in test [3] (Mus musculus, B16-F10, 96 h) it was 7.42.
For `CCOC(=O)N=S(C)(=O)Cc1cc(Nc2cc(-c3ccc(F)cc3OC)c(F)cn2)nc(OC)c1` (racemic) [Example 15, (rac)-ethyl{[(2-{[5-fluoro-4-(4-fluoro-2-methoxyphenyl)pyridin-2-yl]amino}-6-methoxypyridin-4-yl)methyl](methyl)oxido-λ^6-sulfanylidene}carbamate], in that order: 9.00, 7.49, 7.51 and 7.35.
Regarding `COc1cc(F)ccc1-c1cc(Nc2cc(CS(C)(=O)=NC#N)ccn2)ncc1F` (single isomer, unassigned) [Example 10, {[(2-{[5-Fluoro-4-(4-fluoro-2-methoxyphenyl)pyridin-2-yl]amino}pyridin-4-yl)methyl](methyl)oxido-λ^6-sulfanylidene}cyanamide], the pIC50 against CDK9/CycT1 is 9.00; in test [1] (Homo sapiens, NCI-H460, 96 h), 7.41; in test [2] (Homo sapiens, DU-145, 96 h), 7.47; in test [3] (Mus musculus, B16-F10, 96 h), 7.20.
Take `COc1cc(F)ccc1-c1cc(Nc2cc(CS(C)(=N)=O)cc(F)n2)ncc1F` (single isomer, unassigned; (+)) [Example 19, (+)-5-Fluoro-4-(4-fluoro-2-methoxyphenyl)-N-{6-fluoro-4-[(S-methylsulfonimidoyl)methyl]pyridin-2-yl}pyridin-2-amine]: the pIC50 at CDK9/CycT1 was 7.72; in test [1] (Homo sapiens, NCI-H460, 96 h), 6.96; in test [2] (Homo sapiens, DU-145, 96 h), 7.24; in test [3] (Mus musculus, B16-F10, 96 h) it was 7.02.
Take `COc1cc(F)ccc1-c1cc(Nc2cc(CS(C)(=N)=O)cc(Cl)n2)ncc1F` (racemic) [Example 7, (rac)-N-{6-Chloro-4-[(S-methylsulfonimidoyl)methyl]pyridin-2-yl}-5-fluoro-4-(4-fluoro-2-methoxyphenyl)pyridin-2-amine]: the pIC50 at CDK9/CycT1 is 8.70; in test [1] (Homo sapiens, NCI-H460, 96 h), 7.33; in test [2] (Homo sapiens, DU-145, 96 h), 7.43; in test [3] (Mus musculus, B16-F10, 96 h), 7.47.
On the same counts, the results for `CCS(=N)(=O)Cc1ccnc(Nc2cc(-c3ccc(F)cc3OC)c(F)cn2)c1` (racemic) [Example 30, (rac)-N-{4-[(S-Ethylsulfonimidoyl)-methyl]pyridin-2-yl}-5-fluoro-4-(4-fluoro-2-methoxyphenyl)pyridin-2-amine] are 8.30, 6.92, 7.09 and 6.92.
